From ChEMBL document CHEMBL5356993, “Novel pyrazolo[3,4-d]pyrimidine derivatives: design, synthesis, anticancer evaluation, VEGFR-2 inhibition, and antiangiogenic activity” (RSC Med Chem, 2023)

Tests used:
[1] = tested on: HUVEC; assay: Antiangiogenic activity against HUVEC cells assessed as wound closure at IC50 incubated for 72 hrs by wound healing assay (reference value: 98.518 %); format: functional, Homo sapiens
[2] = tested on: HUVEC; assay: Antiangiogenic activity against HUVEC cells assessed as decrease in healing rate at IC50 incubated for 72 hrs by wound healing assay relative to control; format: functional, Homo sapiens; set-up: scale not given: the % may be the effect or the level left
[3] = tested on: MDA-MB-468; assay: Induction of apoptosis in human MDA-MB-468 cells assessed as increase in caspase-3 level incubated for 2 hrs by ELISA (reference value: 2.109 ng/ml); format: functional

CCN(CC)CCNC(=O)c1c(C)[nH]c(/C=C2\C(=O)Nc3ccc(F)cc32)c1C [SUNITINIB] was tested, and the Activity [1] was 57.777%, the Activity [2] was 41% and the Activity [3] was 21.83 ng/mL.
